These are literature values, as cited in US20210268080A1, “IMMUNE STIMULATING COMPOSITIONS FOR THE TREATMENT AND REVENTION OF INFECTIONS WITH INTRACELLULAR PATHOGENS” (priority 2018, published 2021).

The data set relates to Trypanosoma cruzi.

On to `CC[C@@H]([C@H](C)O)n1ncn(-c2ccc(N3CCN(c4ccc(OC[C@@H]5CO[C@@](Cn6cncn6)(c6ccc(F)cc6F)C5)cc4)CC3)cc2)c1=O` [posaconazole], for which, where the note is “human, in vivo”, the “efficacy in human studies” value is “limited efficacy”.

Regarding `O=C(Cn1ccnc1[N+](=O)[O-])NCc1ccccc1` [benznidazole], the “onset of heart disease” value (adults with chronic Chagas infections) was “slow the onset”. The cure rate entry (children aged six to 12 years with chronic disease) is “about 60%”. For the same compound, the “patients who fail to complete the drug regimen due to toxicities” value (months-long regimen) was ~20%. Where the note is “patients with established Chagas cardiomyopathy”, the serum parasite detection result was “significantly reduced”. The cardiac clinical deterioration result (patients with established Chagas cardiomyopathy, five years of follow-up) is “did not significantly reduce”.
